Measured values taken from patent publication EP0411159B1, “METHOD FOR DETERMINING ENZYMATIC ACTIVITY” (IATRON LABORATORIES, INC., priority 1989, dated 1990).
In brackets after ≈: the same amount, converted by molar mass.

Assays:
[1] = prior-art substrate; needs solubilizing auxiliary agent such as cyclodextrin or crown ether; cited from earlier work
[2] = stability (decomposition) of the substrate in aqueous solution; type: physicochemical
[3] = water solubility of the substrate (aqueous solution prepared)

Structure (SMILES) | solubility in water (in words) [1] | degraded at 1 h ([2]; enzyme reaction conditions (pH 5, 37°C) for one hour, read-out: decomposition ratio) | stability of aqueous solution ([2]; under ice-cooling) | degraded ([2]; water, aqueous solution left to stand at room temperature overnight) | solubility [3]
CC(=O)N[C@H]1[C@H](Oc2ccc([N+](=O)[O-])cc2Cl)O[C@H](CO)[C@@H](O)[C@@H]1O [2-chloro-4-nitrophenyl-N-acetyl-β-D-glucosaminide] | difficult to dissolve in water |  |  |  | 
CC(=O)N[C@H]1[C@H](Oc2ccc([N+](=O)[O-])c([N+](=O)[O-])c2)O[C@H](CO)[C@@H](O)[C@@H]1O [3,4-DNG, 3,4-dinitrophenyl-N-acetyl-β-D-glucosaminide] |  | 1.5% | stable | ~1% | 12 mM (≈ 4650 µg/mL)
